Where “and” joins values, the source holds several entries; their conditions need not be identical. Equal entries are not always repeated.
Conditions: Liquid, Vibrating tube method

CCCCCC(=O)OCC(COC(=O)CCCCC)(COC(=O)CCCCC)COC(=O)CCCCC [pentaerythritol tetrahexanoate]
Conditions | mass density
283.14 K, 6785.3 kPa | 1008.1 kg/m3
283.14 K, 6787.6 kPa | 1008 kg/m3 and 1008.2 kg/m3
283.14 K, 6787.7 kPa | 1008.1 kg/m3
283.14 K, 6787.9 kPa | 1008.1 kg/m3 and 1008 kg/m3
283.14 K, 30862 kPa | 1021 kg/m3
283.14 K, 30898 kPa | 1021 kg/m3
283.14 K, 30915 kPa | 1021 kg/m3
283.14 K, 32175 kPa | 1021.8 kg/m3
283.14 K, 32194 kPa | 1021.7 kg/m3
283.14 K, 32218 kPa | 1021.7 kg/m3
283.14 K, 32238 kPa | 1021.8 kg/m3
283.14 K, 32258 kPa | 1021.8 kg/m3
283.14 K, 32282 kPa | 1021.8 kg/m3
283.14 K, 32303 kPa | 1021.7 kg/m3
283.14 K, 32324 kPa | 1021.8 kg/m3
283.15 K, 90.7 kPa | 1004 kg/m3
283.15 K, 90.8 kPa | 1004.1 kg/m3
283.15 K, 90.9 kPa | 1004.2 kg/m3
283.15 K, 96 kPa | 1004.2 kg/m3
283.15 K, 96.1 kPa | 1004.2 kg/m3
283.15 K, 96.4 kPa | 1004.1 kg/m3 and 1004.2 kg/m3
283.15 K, 96.6 kPa | 1004.2 kg/m3
283.15 K, 96.7 kPa | 1004.2 kg/m3
283.15 K, 96.9 kPa | 1004.2 kg/m3
283.15 K, 97.3 kPa | 1004.1 kg/m3
283.15 K, 97.4 kPa | 1004.1 kg/m3 and 1004.2 kg/m3
283.15 K, 97.6 kPa | 1004 kg/m3 and 1004.2 kg/m3
283.15 K, 99.3 kPa | 1004.2 kg/m3
283.15 K, 101.4 kPa | 1004.2 kg/m3
283.15 K, 101.6 kPa | 1004.2 kg/m3
283.15 K, 102.1 kPa | 1004.2 kg/m3
283.15 K, 102.2 kPa | 1004.1 kg/m3 and 1004.2 kg/m3
283.15 K, 106.2 kPa | 1004.2 kg/m3
283.15 K, 106.9 kPa | 1004.1 kg/m3
283.15 K, 107 kPa | 1004.2 kg/m3
283.15 K, 107.4 kPa | 1004 kg/m3
283.15 K, 107.5 kPa | 1004.1 kg/m3
283.15 K, 107.7 kPa | 1004.2 kg/m3
283.15 K, 107.9 kPa | 1004.2 kg/m3 and 1004.3 kg/m3
283.15 K, 111.3 kPa | 1004.1 kg/m3
283.15 K, 111.5 kPa | 1004.2 kg/m3
283.15 K, 111.7 kPa | 1004.3 kg/m3
283.15 K, 112 kPa | 1004.2 kg/m3
283.15 K, 112.3 kPa | 1004.1 kg/m3
283.15 K, 112.4 kPa | 1004.2 kg/m3
283.15 K, 112.5 kPa | 1004.1 kg/m3
283.15 K, 112.7 kPa | 1004.2 kg/m3 and 1004.1 kg/m3
283.15 K, 113 kPa | 1004.1 kg/m3 and 1004.2 kg/m3
283.15 K, 113.2 kPa | 1004.3 kg/m3 and 1004.1 kg/m3
283.15 K, 113.4 kPa | 1004.2 kg/m3
283.15 K, 113.5 kPa | 1004.1 kg/m3
283.15 K, 113.9 kPa | 1004.2 kg/m3
283.15 K, 114.1 kPa | 1004.2 kg/m3
283.15 K, 114.4 kPa | 1004.1 kg/m3
283.15 K, 114.6 kPa | 1004.1 kg/m3
283.15 K, 114.8 kPa | 1004.3 kg/m3
283.15 K, 114.9 kPa | 1004.2 kg/m3 and 1004.1 kg/m3
283.15 K, 115.1 kPa | 1004.2 kg/m3
283.15 K, 115.4 kPa | 1004.2 kg/m3
283.15 K, 115.5 kPa | 1004.2 kg/m3
283.15 K, 115.8 kPa | 1004.2 kg/m3
283.15 K, 116 kPa | 1004.2 kg/m3
283.15 K, 116.3 kPa | 1004.2 kg/m3
283.15 K, 116.5 kPa | 1004.1 kg/m3
283.15 K, 116.7 kPa | 1004.2 kg/m3
283.15 K, 116.8 kPa | 1004.2 kg/m3
283.15 K, 117.2 kPa | 1004.1 kg/m3
283.15 K, 117.3 kPa | 1004.2 kg/m3 and 1004.3 kg/m3
283.15 K, 117.5 kPa | 1004.2 kg/m3
283.15 K, 117.9 kPa | 1004.2 kg/m3 and 1004.3 kg/m3
283.15 K, 118 kPa | 1004.1 kg/m3
283.15 K, 118.2 kPa | 1004.2 kg/m3
283.15 K, 118.4 kPa | 1004.2 kg/m3
283.15 K, 118.7 kPa | 1004.2 kg/m3
283.15 K, 118.9 kPa | 1004.2 kg/m3
283.15 K, 119.1 kPa | 1004.4 kg/m3 and 1004.2 kg/m3
283.15 K, 119.3 kPa | 1004 kg/m3
283.15 K, 119.6 kPa | 1004.2 kg/m3
283.15 K, 119.8 kPa | 1004.1 kg/m3
283.15 K, 119.9 kPa | 1004.3 kg/m3 and 1004.2 kg/m3
283.15 K, 120.1 kPa | 1004.1 kg/m3
283.15 K, 121.3 kPa | 1004.2 kg/m3
283.15 K, 121.7 kPa | 1004.2 kg/m3 and 1004.1 kg/m3
283.15 K, 122 kPa | 1004.3 kg/m3
283.15 K, 122.4 kPa | 1004.1 kg/m3
283.15 K, 122.5 kPa | 1004.3 kg/m3
283.15 K, 122.9 kPa | 1004.1 kg/m3
283.15 K, 123 kPa | 1004.2 kg/m3
283.15 K, 123.2 kPa | 1004.2 kg/m3
283.15 K, 123.6 kPa | 1004.3 kg/m3 and 1004.2 kg/m3
283.15 K, 123.7 kPa | 1004.1 kg/m3
283.15 K, 123.9 kPa | 1004.2 kg/m3 and 1004.1 kg/m3
283.15 K, 124.3 kPa | 1004.2 kg/m3
283.15 K, 124.6 kPa | 1004 kg/m3
283.15 K, 124.9 kPa | 1004.1 kg/m3
283.15 K, 125 kPa | 1004.2 kg/m3
283.15 K, 125.1 kPa | 1004.1 kg/m3
283.15 K, 125.3 kPa | 1004.2 kg/m3
283.15 K, 125.8 kPa | 1004 kg/m3
283.15 K, 126 kPa | 1004.3 kg/m3
283.15 K, 126.2 kPa | 1004.2 kg/m3 and 1004.1 kg/m3
283.15 K, 127.9 kPa | 1004.2 kg/m3
283.15 K, 128.1 kPa | 1004.3 kg/m3
283.15 K, 128.4 kPa | 1004.3 kg/m3
283.15 K, 134 kPa | 1004.1 kg/m3
283.15 K, 134.1 kPa | 1004.2 kg/m3
283.15 K, 134.3 kPa | 1004.1 kg/m3
283.15 K, 134.5 kPa | 1004.3 kg/m3
283.15 K, 135 kPa | 1004.2 kg/m3
283.15 K, 135.2 kPa | 1004.2 kg/m3
283.15 K, 135.3 kPa | 1004.1 kg/m3
283.15 K, 136 kPa | 1004.2 kg/m3
283.15 K, 136.4 kPa | 1004.2 kg/m3
283.15 K, 136.6 kPa | 1004.2 kg/m3 and 1004.1 kg/m3
283.15 K, 136.7 kPa | 1004.3 kg/m3
283.15 K, 136.9 kPa | 1004.1 kg/m3
283.15 K, 137.4 kPa | 1004.2 kg/m3
283.15 K, 137.6 kPa | 1004.3 kg/m3 and 1004.2 kg/m3
283.15 K, 137.9 kPa | 1004.3 kg/m3
283.15 K, 138.1 kPa | 1004.2 kg/m3
283.15 K, 138.8 kPa | 1004.2 kg/m3
283.15 K, 139 kPa | 1004.1 kg/m3 and 1004.3 kg/m3
283.15 K, 139.2 kPa | 1004.3 kg/m3 and 1004.2 kg/m3
283.15 K, 139.3 kPa | 1004.2 kg/m3
283.15 K, 139.7 kPa | 1004.2 kg/m3 and 1004.1 kg/m3 and 1004.3 kg/m3
283.15 K, 140.4 kPa | 1004.3 kg/m3
283.15 K, 140.6 kPa | 1004.3 kg/m3
283.15 K, 140.7 kPa | 1004.2 kg/m3
283.15 K, 141.1 kPa | 1004.2 kg/m3
283.15 K, 141.4 kPa | 1004.2 kg/m3
283.15 K, 141.6 kPa | 1004.2 kg/m3
283.15 K, 142.1 kPa | 1004.3 kg/m3
283.15 K, 142.5 kPa | 1004.2 kg/m3
283.15 K, 143 kPa | 1004.2 kg/m3 and 1004.1 kg/m3
283.15 K, 143.2 kPa | 1004.2 kg/m3
283.15 K, 144 kPa | 1004.2 kg/m3 and 1004.1 kg/m3
283.15 K, 144.2 kPa | 1004.3 kg/m3
283.15 K, 144.4 kPa | 1004.1 kg/m3
283.15 K, 144.7 kPa | 1004.1 kg/m3
283.15 K, 145.4 kPa | 1004.2 kg/m3
283.15 K, 145.9 kPa | 1004.3 kg/m3
283.15 K, 146.3 kPa | 1004.2 kg/m3
283.15 K, 146.6 kPa | 1004.2 kg/m3
283.15 K, 147.3 kPa | 1004.2 kg/m3

From the NIST ThermoML archive (doi:10.1021/je060271a)
